Assay results reported in PubChem BioAssay (NCI).
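Following 48 hours of exposure in 96-well plates, responses at five concentrations were used to interpolate endpoints linearly. At the TGI there is no net growth.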

Tests used:
Assay in all cases: inhibition of tumour cell growth, NCI panel, 48 h
[1] = tested on: A498 renal
[2] = tested on: CAKI-1 renal
[3] = tested on: HL-60(TB) leukemia
[4] = tested on: HOP-62 NSCLC
[5] = tested on: MDA-MB-435
[6] = tested on: MOLT-4 leukemia
[7] = tested on: NCI-H226 lung
[8] = tested on: NCI-H522 lung
[9] = tested on: RPMI-8226 leukemia
[10] = tested on: SK-OV-3 ovarian
[11] = tested on: SR leukemia

Row | Structure (SMILES) | TGI [1] [µM] | TGI [2] [µM] | TGI [3] [µM] | TGI [4] [µM] | TGI [5] [µM] | TGI [6] [µM] | TGI [7] [µM] | TGI [8] [µM] | TGI [9] [µM] | TGI [10] [µM] | TGI [11] [µM]
1 | COC(=O)C1Cc2c(C)cccc2C1=O (stereo not given) | > 100 | > 100 | 77.8 | > 100 | > 100 | > 100 | > 100 | > 100 | > 100 | > 100 | > 100
2 | O=C1Nc2ccccc2C(=O)OC(Cc2ccccc2)=Nc2ccccc21 | – | > 100 | > 100 | > 100 | > 100 | > 100 | > 100 | > 100 | > 100 | > 100 | > 100
3 | CC1C(c2ccc(N(C)C)cc2)c2cc3c(cc2OC1N1CCCC1)OCO3 (stereo not given) | 72.3 | > 100 | 73.6 | > 78.6 | 60.4 | > 100 | – | > 82 | 97.5 | – | > 100
4 | Nc1c(Br)cc(-c2cc(Br)c(N)c(Br)c2)cc1Br | – | > 100 | > 100 | > 100 | > 100 | > 100 | > 100 | > 100 | > 100 | > 100 | > 100
5 | N#Cc1[nH]c(=O)n(-c2ccc([N+](=O)[O-])cc2)c1N | > 10 | – | > 10 | > 10 | > 10 | > 10 | > 10 | > 10 | > 10 | > 10 | > 10
6 | CCOC(=O)C1(Cc2ccc(C)cc2)Cc2ccc(C)cc2C1=O (stereo not given) | > 79.1 | > 100 | 23.6 | > 100 | 12.2 | 27.7 | > 92.4 | 36.9 | 64.2 | > 100 | 68.8
7 | CCC1(O)C=CC(=O)C=C1 | 67.9 | > 100 | > 100 | 67.5 | > 100 | > 100 | 75.3 | 24.7 | > 100 | > 100 | > 100
8 | O=C(CCSC(CC(=O)c1ccc(Cl)cc1)c1ccc(Cl)cc1)Nc1ccc(Cl)cc1 (stereo not given) | 25.1 | 57.2 | 20.4 | 29.1 | 25.6 | 11.5 | 41.5 | 40.2 | 5.57 | 42.3 | 9.57
9 | N#CC(c1ccc(O)cc1)N1CCN(C(C#N)c2ccc(O)cc2)CC1 (stereo not given) | > 100 | > 100 | > 100 | 57.1 | > 100 | > 100 | > 77.6 | > 100 | > 100 | > 100 | > 100
10 | N#Cc1c(-c2ccco2)c2c(n(C3OC(CO)C(O)C(O)C3O)c1=S)CCCC2 (stereo not given) | > 100 | > 100 | > 100 | > 100 | > 100 | > 100 | > 100 | > 100 | – | > 100 | > 100
11 | COc1cc2c(cc1OC)C(=O)N(c1ccc(O)cc1)C2 | > 100 | > 100 | > 100 | > 100 | > 100 | > 100 | > 100 | > 100 | > 100 | > 100 | > 100
12 | O=c1cnn(C2OC(CO)C(O)C(F)C2O)c(=O)[nH]1 (stereo not given) | > 100 | > 100 | > 100 | – | > 100 | – | > 100 | > 100 | > 100 | > 100 | > 100
13 | COc1ccc2nc3ccc(OC)cc3c(S(=O)Cc3ccc([N+](=O)[O-])cc3)c2c1 (stereo not given) | 36.3 | 28.6 | 6.97 | 30.7 | 26 | > 23.2 | 45.6 | 3.37 | 7.7 | 40.1 | > 33.6
14 | CCOC(=O)NNC(=O)NCCNC(=O)NNC(=O)OCC | > 100 | > 100 | > 100 | – | > 100 | > 100 | > 100 | > 100 | > 100 | > 100 | > 100
15 | NCCC1(N)CCNCC1 | > 100 | > 100 | > 100 | – | > 100 | > 100 | > 100 | > 100 | > 100 | > 100 | > 100
16 | C[N+]1(C)CC=C(N2CCOCC2)CC1 | > 10 | > 10 | > 10 | > 10 | > 10 | > 10 | > 10 | > 10 | > 10 | > 10 | > 10
17 | COc1ccc(C[C@@H]2CN(C(=O)c3ccccc3)[C@H](Cc3ccc(O)cc3)CN2C(=O)c2ccccc2)cc1Br | > 100 | > 100 | > 100 | > 100 | > 100 | > 100 | > 100 | – | > 100 | > 100 | > 100
18 | CC(=O)N[C@@H](Cc1ccc(O)cn1)C(=O)NCc1cccc(F)c1 | > 100 | > 100 | > 100 | > 100 | > 100 | – | > 100 | > 100 | > 100 | > 100 | > 100
19 | COc1c2cc(C(C)(C)C)cc1CSCc1cc(C(C)(C)C)cc(c1OC)CCCCC2 | > 50 | – | > 50 | > 50 | > 50 | > 50 | > 50 | – | – | > 50 | > 50

Row | Structure (SMILES) | TGI [1] [µM] | TGI [2] [µM] | TGI [3] [µM] | TGI [4] [µM] | TGI [5] [µM] | TGI [6] [µM] | TGI [7] [µM] | TGI [8] [µM] | TGI [9] [µM] | TGI [10] [µM] | TGI [11] [µM]
20 | O=S(=O)(O)c1ccc(NN(c2c(O)ccc3ccccc23)S(=O)(=O)O)cc1 | > 100 | > 100 | > 100 | > 100 | > 100 | > 100 | > 100 | > 100 | > 100 | > 100 | > 100
21 | CO/C(=N\N=C(/C)C(F)(F)F)c1ccncc1 | > 100 | > 100 | > 100 | > 100 | > 100 | > 100 | > 100 | > 100 | > 100 | > 100 | > 100
22 | O=c1c2cc([N+](=O)[O-])ccc2n2n1Cc1ccccc1CC2 | > 100 | > 100 | > 100 | > 100 | > 100 | > 100 | > 100 | > 100 | > 100 | > 100 | > 100
23 | Oc1ccc(-c2cc(-c3c(O)cc(O)cc3O)on2)cc1 | – | > 100 | > 100 | > 100 | > 100 | > 100 | > 100 | > 100 | > 100 | > 100 | > 100
24 | CCOC(=O)c1cc2cc(Cc3ccc4[nH]c(C(=O)OCC)cc4c3)ccc2[nH]1 | 36.4 | 34.3 | > 100 | 23 | > 100 | > 100 | 62.4 | – | > 100 | 55.4 | > 100
25 | COc1ccc(-n2c(CCCC(=O)O)nc3c2C(=O)c2ccccc2C3=O)cc1 | > 100 | > 100 | > 100 | – | 78.9 | > 100 | – | > 100 | > 100 | > 100 | > 100
26 | CC(C)(C)C1CCC2c3c([nH]c4ccccc34)C3C(=O)N(c4cc(Br)cc(Br)c4)C(=O)C3C2C1 (stereo not given) | 68.4 | 66.6 | 5.82 | 69.6 | 77.2 | 38.2 | 75.6 | 66.4 | > 100 | > 100 | 82.4
27 | O=C(C=P(c1ccccc1)(c1ccccc1)c1ccccc1)C12CC3CC(CC(C3)C1)C2 | 39.9 | 33.6 | 27.1 | 32.3 | 26.6 | – | – | 20.6 | 20.6 | – | > 100
28 | O=C(Cc1ccc(Cl)c(Cl)c1)NCCCN1CCN(CCCN2CCCCC2)CC1 | 31 | 41.3 | 37.2 | 32.1 | 4.11 | 28.8 | 42.4 | 35.1 | 16.3 | 40.8 | 29
29 | CCOC(=O)CC(C)C(C#N)(OP1(=O)OC(c2ccccc2)C(C)N1C)c1ccccc1 (stereo not given) | > 100 | > 100 | 78.7 | > 100 | > 100 | 73.1 | – | > 100 | > 100 | > 100 | > 100
30 | CSc1n[nH]c(N)c1C(=O)Nc1ccc(Cl)cc1 | > 100 | > 100 | > 100 | – | > 100 | > 100 | 76.5 | > 100 | > 100 | > 100 | > 100
31 | O=[N+]([O-])/C(C(Cl)=C(Cl)Cl)=C1\Nc2ccccc2O1 | > 100 | > 100 | 48.7 | > 100 | > 100 | 77.9 | 59.7 | 63.8 | 75.6 | > 100 | 63.7
32 | COc1ccc(NC(=S)NN=C(C)c2cccc(C(C)=NNC(=S)Nc3ccc(OC)cc3)n2)cc1 | > 100 | > 100 | > 100 | > 100 | > 100 | > 100 | > 100 | > 100 | > 100 | > 100 | > 100
33 | Cc1c(C)c(C)c(-n2c(=O)n(C)c(=O)n2C(C)(C)C)c(C)c1C | > 100 | > 100 | > 100 | – | > 100 | > 100 | – | – | > 100 | > 100 | > 100
34 | CCOn1cc(C[C@@]2(O)C(=O)OC3[C@@H](O)CO[C@@]32O)c2ccccc21 (stereo not given in full) | 4.09 | > 100 | > 100 | > 100 | > 100 | > 100 | > 100 | > 100 | > 100 | > 100 | > 100
35 | COc1ccc(C2CC(c3cc4c(C)c(C(=O)c5ccccc5)oc4cc3O)=Nc3ccccc3S2)cc1OC (stereo not given) | > 87 | > 100 | > 100 | > 34.3 | 2.05 | > 100 | > 100 | > 85 | > 100 | – | > 100
36 | CCOC(=O)C(NCc1ccccc1)(NC(=O)c1ccccc1)C(F)(F)F (stereo not given) | – | > 100 | > 100 | > 100 | > 100 | > 100 | > 100 | > 100 | > 100 | > 100 | > 100
37 | c1cc(-c2cscc2-c2ccsc2)cs1 | > 100 | > 100 | > 100 | > 100 | > 100 | > 100 | – | – | > 100 | > 100 | > 100
38 | Fc1cccc(F)c1C1SCC2=Nc3ccccc3CN21 (stereo not given) | > 100 | > 100 | > 100 | 84.4 | > 100 | > 100 | – | – | > 100 | > 100 | > 100
